The values below come from patent US8293729B2 (Boehringer Ingelheim International GmbH, priority 2009, dated 2012).

The target in this assay is T1, human GPR119 receptor (Homo sapiens, UniProt Q8TDV5, S329A/T327A).
T1 construct: N-terminal leader […]; expressed in transfected cells
T1 sequence (Q8TDV5 with tags, fused parts or gaps T327A/S329A): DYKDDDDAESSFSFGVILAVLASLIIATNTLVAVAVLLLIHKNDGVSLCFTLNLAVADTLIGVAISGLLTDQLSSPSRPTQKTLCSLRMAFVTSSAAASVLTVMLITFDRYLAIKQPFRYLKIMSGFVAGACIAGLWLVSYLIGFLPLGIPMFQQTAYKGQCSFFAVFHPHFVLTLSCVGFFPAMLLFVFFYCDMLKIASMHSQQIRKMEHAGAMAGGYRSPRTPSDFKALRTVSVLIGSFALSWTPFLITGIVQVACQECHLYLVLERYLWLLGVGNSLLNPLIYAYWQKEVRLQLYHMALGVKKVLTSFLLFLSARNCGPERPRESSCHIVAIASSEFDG
Briefly: cAMP assay (LANCE cAMP-384) in HEK293 cells stably expressing mutant human GPR119 receptor. The assay is classed as cell-based. In short, it runs like this: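 Agonist EC50 came from nonlinear regression over 12 concentrations (30 μM–100 pM), with % stimulation at 10 μM where no EC50 was obtained. Cells: stable HEK293 with mutant human GPR119 (T327A/S329A), 20 min compound at 37° C; cAMP read by LANCE kit with standard curve.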
A general note: cAMP levels reflect the balance of adenylyl cyclase and phosphodiesterase activity.

Setting [1] is: the 19th table, unit inferred, read-out: EC 50.
Where [2] appears, read: cAMP accumulation, HEK293 cells stably expressing mutant human GPR119, read-out: EC50.
[3] abbreviates: the 43rd table, compounds 75-1 to 75-38, read-out: EC50.
Setting [4] is: the 36th table, compounds 66-1 to 66-51, read-out: EC50.

Read-outs that look alike come from different tables or passages of the source. Where only a bound is given, the exact number is not on record here.

As to `CCc1cnc(N2CCC(ON=C3CCN(c4cc(F)c(C(=O)N5CCC(N)CC5)cc4F)CC3)CC2)nc1` [Example 29-126], the EC50 under setting [1] amounted to 469 nM. Regarding `Cc1cnn(Cc2cc(F)c(N3CCC(=NOC4CCN(C(=O)OC(C)C)CC4)CC3)cc2F)c1` [Example 14-10], the EC50 under setting [2] amounted to 8 nM. Take `CNC1CCN(C(=O)Cc2cc(F)c(N3CCC(=NOC4CCN(C(=O)OC(C)C)CC4)CC3)cc2F)CC1` [Example 75-21]: the EC50 under setting [3] amounted to 126 nM. Take `COC(=O)[C@@H](C)COC(=O)N1CCC(ON=C2CCN(c3ccc(S(C)(=O)=O)cc3F)CC2)CC1` [Example 64-24]: the EC50 (the 33rd table, read-out: EC50) came out at 708 nM. For `CC(C)OC(=O)N1CCC(ON=C2CCN(c3ncc(-n4cncn4)cc3F)CC2)CC1` [Example 51-1, 4-(3′-Fluoro-5′-[1,2,4]triazol-1-yl-2,3,5,6-tetrahydro-[1,2]bipyridinyl-4-ylideneaminooxy)-piperidine-1-carboxylic acid isopropyl ester], the EC50 (the 28th table, read-out: EC50) was 327 nM.

Take `CC(C)OC(=O)N1CCC(ON=C2CCN(c3cc(F)c(CN4CCOC(CC(=O)O)C4)cc3F)CC2)CC1` (centres unmarked) [Example 5-2]: under setting [2], the EC50 was 5880 nM. For `CC(C)OC(=O)N1CCC(ON=C2CCN(c3ncc(Br)cn3)CC2)CC1` [Example 2-17], under setting [2], the EC50 worked out at 1180 nM. Same read-out and setting: the value for `CC(C)OC(=O)N1CCC(ON=C2CCN(c3ccc(S(N)(=O)=O)cc3F)CC2)CC1` [Example 2-36] was 130 nM. With `CNC(=O)c1cc(F)c(N2CCC(=NOC3CCN(Cc4ccc(C)cc4)CC3)CC2)cc1F` [Example 66-70], where the note is “the 38th table, compounds 66-65 to 66-72, read-out: EC50”, the EC50 was 193 nM.

`CC(C)OC(=O)N1CCC(ON=C2CCN(c3cc(F)c(-c4cc[nH]n4)cc3F)CC2)CC1` [Example 27-9]: under setting [2], the EC50 came out at 232 nM. Consider `CC(C)OC(=O)CN1CCC(ON=C2CCN(c3ccc(S(C)(=O)=O)cc3F)CC2)CC1` [Example 65-3], for which, for the setting “HEK293, 20 min, at 10 μM, printed in EC50 column of the 34th table, read-out: stimulation in % at 10 μM”, the activation at 10 µM was determined as 64%. With `CCc1cnc(N2CCC(ON=C3CCN(c4cc(F)c(C(=O)NCC[C@H](N)C(=O)O)cc4F)CC3)CC2)nc1` [Example 29-117], the EC50 under setting [1] amounted to 745 nM.

Regarding `CC(CO)NC(=O)c1cc(F)c(N2CCC(=NOC3CCN(C(=O)OC(C)C)CC3)CC2)cc1F` (centres unmarked) [Example 29-8], the EC50 (the 15th table, read-out: EC50) came out at 81 nM. In the case of `CC(C)OC(=O)N1CCC(ON=C2CCN(c3cc(F)c(CC(=O)NCC4CCN(C)C4)cc3F)CC2)CC1` (centres unmarked) [Example 75-33], the EC50 under setting [3] is 128 nM.

Turning to `CCc1ccc(N2CCC(ON=C3CCN(c4ccc(S(C)(=O)=O)cc4F)CC3)CC2)nc1` [Example 67-2], the EC50 (the 39th table, compounds 67-1 to 67-3, read-out: EC50) was 558 nM. Take `CC(C)OC(=O)N1CCC(ON=C2CCN(c3c(Cl)cncc3Cl)CC2)CC1` [Example 2-39]: the EC50 under setting [2] was 1680 nM.

Turning to `CS(=O)(=O)c1ccc(N2CCC(=NOC3CCN(Cc4ccc(Br)cc4F)CC3)CC2)c(F)c1` [Example 66-44], under setting [4], the EC50 came out at 753 nM.

In the case of `CC(C)OC(=O)N1CCC(ON=C2CCN(c3cc(F)c(CC(=O)N4CC[C@H](N)C4)cc3F)CC2)CC1` [Example 75-20], the EC50 under setting [3] was found to be 45 nM.

In the case of `CC(C)OC(=O)N1CCC(ON=C2CCN(c3cc(F)c(Cn4cccc4)cc3F)CC2)CC1` [Example 14-14], the EC50 under setting [2] was 467 nM.

For the molecule `Cc1c(Cl)ncnc1N1CCC(=NOC2CCN(C(=O)OC(C)C)CC2)CC1` [Example 2-52], under setting [2], the EC50 was 653 nM. Consider `CC(C)OC(=O)N1CCC(ON=C2CCN(c3cc(F)c(CC(=O)N4CCC(CN5CCCC5)CC4)cc3F)CC2)CC1` [Example 75-34], for which, under setting [3], the EC50 was 146 nM. In the case of `CC1(COC(=O)N2CCC(ON=C3CCN(c4ccc(S(C)(=O)=O)cc4F)CC3)CC2)CC1` [Example 64-7], the EC50 (the 33rd table, read-out: EC50) worked out at 67 nM. As to `CC(C)OC(=O)N1CCC(ON=C2CCN(c3cc(Cl)c(F)cc3C(=O)O)CC2)CC1` [Example 2-21], the EC50 under setting [2] was above 10000 nM. Regarding `CS(=O)(=O)c1ccc(N2CCC(=NOC3CCN(c4ccc(Br)cn4)CC3)CC2)c(F)c1` [Example 63-20], the EC50 (the 32nd table, read-out: EC50) was 387 nM. In the case of `CC(C)(C)CN1CCC(ON=C2CCN(c3ccc(S(C)(=O)=O)cc3F)CC2)CC1` [Example 66-22], under setting [4], the EC50 was 1360 nM. Regarding `CC(C)OC(=O)N1CCC(ON=C2CCN(c3cc(F)c(CC(=O)NC4CCNCC4)cc3F)CC2)CC1` [Example 75-18], under setting [3], the EC50 is 98 nM.
